Results on 1 sequence are retold here after patent publication US20130315920A1, “Cross Protective Epitopes of Aspergillus Fumigatus and Candida Albicans” (Cell Medica Limited, priority 2010, published 2013).

Experiment [1] concerns T-cell lines of 7 donors with different MHC class II alleles. Nature of the experiment: Epitope mapping of Crf1 peptides with IFN-γ ELISPOT. In kind it is cell-based, human. The following applies: 7 donors tested, peptide-pulsed autologous DC. From the text: As the identification of potential protective fungal antigens is rather intricate due to the extensiveness of fungal genomes, we analyzed 6 different A. fumigatus recombinant proteins based on their previously reported immunogeneic reactivity in mice and humans^7,10. […] By contrast, GPI-anchored extracellular cell wall glucanase Crf1 and secreted protein peptidase induced high IFN-γ in 6 of 7 and 5 of 10 tested donors, respectively. The response was mediated by CD4^+ TH1 cells, as MHC class II blocking antibody nearly abrogated IFN-γ release (data not shown). Due to the broad response and the sequence similarity to the C. albicans orthologue Crh1, we focused in subsequent experiments on the protein Crf1. By epitope mapping of 7 healthy individuals with different MHC class II alleles, we identified 10 potential candidate epitopes (Table 1). Based on the results obtained by epitope mapping, the probability of antigen presentation by certain MHC class II alleles assessed by epitope prediction^11, previously reported immunogeneic reactivity^12 and sequence similarity to the C. albicans homologue Crh1, we then generated CD4^+ TH1 T-cell clones specific for the peptides p1, p22, p27, p41, p48, p59, p69 and p84 (FIG. 1a and Table 1).
A peptide library covering the complete Crf1 sequence consisting of 94 15-mer peptides overlapping by […] (aa) was divided into sub-pools of 10 peptides and 94 single peptides (p1-p94) (PANATecs). 3 11-mer peptides of p40/41 overlapping by 2aa ([…], […], HTYTIDWTKDA) were obtained from JPT Peptide Technologies.
For analysis of recombinant proteins and epitope mapping, T-cell lines were generated by incubation of 1×10^7 PBMC per well in 6-well cell culture plates with 5 μg/ml protein or peptide for 7d in the presence of 5 U/ml IL-2 (Proleukin, Chiron). Antigen specificity was analyzed by IFN-γ ELISA^42 after restimulation with autologous monocytes incubated overnight with 5 μg/ml protein in a responder to stimulator (R:S) ratio of 5:1. Epitope mapping was performed by IFN-γ ELISPOT^39 after stimulation with peptide-pulsed autologous DC at a R:S ratio of 10:1.

In experiment [2] the test system is PBMC from additional donors. Nature of the experiment: Verification of HLA restriction by stimulation of PBMC from additional donors. The following applies: data not shown. The format is cell-based, human. From the text: To evaluate the utility of the Crf1 p41 epitope for potential clinical application, we defined the HLA restriction of Crf1 p41-specific CD4^+ T clones from different donors by stimulation with peptide-pulsed partially matched LCLs. […] As presentation of the Crf1 p41 peptide could also be mediated by other MHC class II alleles, we verified the HLA restriction by stimulation of PBMC from additional donors.

Another experiment concerns inactivated A. fumigatus. Put plainly: Peptide-specific T-cell clones stimulated with DC incubated with inactivated A. fumigatus (resting conidia, germinating conidia, hyphae). The format is cell-based, Aspergillus fumigatus. From the text: Response of Crf1 peptide-specific T-cell clones to stimulation with native A. fumigatus antigen. (a) T-cell clones from different donors specific for p1, p22, p27, p41 and p59 that responded to stimulation with Crf1 mRNA-transfected DC were stimulated with A. fumigatus cell extract or (b) inactivated germinating A. fumigatus conidia. IFN-γ values are given after subtraction of the negative control. Shown is 1 clone per antigen and donor (representative experiments, n≧3). (c) Crf1 p41-specific T-cell clones respond to stimulation with DC incubated overnight with germinating A. fumigatus conidia or hyphae but not to resting conidia. T cell clones were stimulated with A. fumigatus inactivated 0 h (resting conidia), 6 h (germinating conidia) or 12 h (hyphae) after incubation in growth medium.
(§1) T-cell cloning was performed as described in below. T-cell clones were stimulated either with mature peptide-pulsed (2.5 μg/ml) or Crf1 mRNA-transfected DC, immature DC incubated for 24 h with A. fumigatus cell extract (20 μg/ml) in the presence of cytokine maturation cocktail or immature DC incubated for 24 h with inactivated A. fumigatus or C. albicans fungus (multiplicity of infection 3) in a R:S ratio of 5:1.
Fungal extracts were generated as described^48 and protein content was measured by Bradford protein assay (Perbio Science) according to the manufacturers' instructions. […]

The test system of experiment [3] is A. flavus, A. nidulans, A. niger, A. terreus, C. glabrata and C. krusei. Put plainly: Cross-reactivity of T-cell clones to other Aspergillus and Candida species. The format is cell-based. To be noted: data not shown. From the text:
We then analyzed if our T-cell clones might cross-react to other clinically relevant Aspergillus and Candida species such as A. flavus, A. nidulans, A. niger, A. terreus, C. glabrata and C. krusei because they also express proteins with some sequence similarity to A. fumigatus Crf1. […] Thus, p41-specific TH1 cells represent a core repertoire in antifungal immune responses being reactive to A. fumigatus but also to C. albicans, the second most important pathogenic fungus in HSCT patients.
Fungal strains A. fumigatus D141, A. nidulans FGSCA4, C. albicans SC5314 and clinical isolates A. fumigatus, A. terreus, A. flavus, A. niger, C. albicans, C. glabrata and C. krusei were provided by Sven Krappmann, Joachim Morschhäuser and Reno Frei.

In experiment [4] the test system is DC transfected with Crf1 mRNA. Put plainly: Peptide-specific T-cell clones stimulated with Crf1 mRNA-transfected DC (IFN-γ). The format is cell-based, human. As to the method:
as §1
For T-cell cloning 6×10^7 PBMC were stimulated overnight with 5 μg/ml peptide and 1 μg/ml CD40 antibody (HB14, Miltenyi Biotec). Cells were labelled with anti-CD154^+ microbeads and isolated by magnetic cell separation according to the manufacturers' instructions (Miltenyi Biotec). Selected cells were cultured with γ-irradiated autologous PBMC (ratio 1:50) and cytokines were supplemented as described above. On d14, T-cell clones were generated by limiting dilution in 96-well plates and expanded using the rapid expansion protocol previously described^50.
A. fumigatus Crf1 cDNA was cloned into the pGEM4Z vector (provided by Kris Thielemans) and in vitro transcribed using mMESSAGE mMACHINE T Ultra Kit (Ambion) according to the manufacturers' instructions. Crf1 was fused to the N-terminal domain of the invariant chain to enhance antigen presentation by MHC class II^51,52. Maturated DC were electroporated with 15 μg mRNA at 300V and 150 μF using the EQUIBIO EasyjecT Plus® apparatus (EQUIBIO) in serum-free medium (OptiMEM, Gibco)^41.

“HTYTIDWTKDAVTWS (Peptide found in the Crf1 protein of Aspergillus fumigatus) [p41, Crf1 aa 161-175]” had a No. of responders in experiment [1] of 5. In addition, the “Reaction of PBMC to the epitope” value in experiment [2] (5 donors lacking HLA-DRB1*03, 04 and 13) was “all 5 donors lacking HLA-DRB1*03, 04 and 13 MHC class II alleles did not”; in experiment [2] (HLA-DRB1*03, 04 and 13 donors) it was “All HLA-DRB1*03, 04 and 13 donors reacted to the Crf1 p41 epitope”. In addition, the “Activation of peptide-specific T-cell clones by resting conidia” value in the experiment on inactivated A. fumigatus (A. fumigatus inactivated 0 h (resting conidia)) was “resting conidia were not able to activate peptide-specific T-cell clones”. For the same sequence, the “Activation of peptide-specific T-cell clones by germinating conidia and hyphae” value in the experiment with inactivated A. fumigatus (A. fumigatus inactivated 6 h (germinating conidia) or 12 h (hyphae)) is given as “germinating conidia induced similar T-cell responses as outgrown hyphae”. Also, the “Cross-reactivity to other Aspergillus and Candida species” value in experiment [3] was “none of the Crf1 p27-, p41- and p59-specific T-cell clones showed any cross-reactivity to these fungi”. Also, in experiment [4] (all donors), the “Response of peptide-specific CD4+ T-cell clones to endogenously processed antigen” value is on record as “All generated p41-specific CD4^+ T-cell clones were activated readily”. The “Number of T-cell clones reacting to Crf1 mRNA-transfected DC/number of peptide-specific T-cell clones” value in experiment [4] (donor 1) was 11/11; in experiment [4] (donor 2), 16/16; in experiment [4] (donor 4), 2/2; in experiment [4] (donor 7), 4/4; in experiment [4] (donor 10), 3/3.
